Columns and labels:
whole human blood = test: Whole blood rotation thrombelastography (ROTEG) clot strength; conditions: tranexamic acid in addition to FVIIa, tPA 2 nM
[1] = tested on: clots formed by normal human plasma; test: Clot lysis assay, normal human plasma diluted 10-fold, turbidity at 650 nm; format: biochemical; conditions: in the presence of 10 nM FVIIa
Protocol: Clot lysis assay: Normal human plasma diluted 10-fold with buffer (20 mM HEPES, 150 mM NaCl, 5 mM CaCl, pH 7.4) containing lapidated recombinant tissue factor (Innovin, Dade Behring, 2000-fold dilution), rFVIIa (Novo Nordisk A/S Bagsvaerd, Denmark, various concentrations) and t-PA (American Diagnostica, 8 nM) was added to 96-well ELISA plates and turbidity at 650 nm was measured over time at room temperature. Where indicated, Tranexamic acid (Sigma, various concentrations) was included.

Compound: NC[C@H]1CC[C@H](C(=O)O)CC1 [Tranexamic acid]
- mechanical strength of the clot (whole human blood): increased the mechanical strength of the clot
- overall survival time of the clot (whole human blood): increased
- Tranexamic acid concentration at which prolongation of clot lysis time was optimal [1]: 1 µM
- effect on clot lysis time ([1]; t-PA 8 nM): further prolongation of the clot lysis time
